pIC50: −log10 of the molar value. Entries after “also recorded” stand apart in the source; their conditions may differ. Each block holds one compound with its values, some of them ahead of it.
What was measured:
[1] = Compound half-life in liver microsomes; settings: for half-life at 0.5 μM: mouse, liver microsomes, pH 7.4; for metabolic stability (in words): mouse liver microsomes
BJeLR = test: Concentration-dependent growth inhibition (alamar blue), isogenic BJ cell lines; assay type: cell-based, human; settings: for pIC50: Homo sapiens, BJeLR, 48 h, 2 days, alamar blue
HT1080 = test: Concentration-dependent growth inhibition (alamar blue), HT1080; assay type: cell-based, human; settings: Homo sapiens, HT-1080, 48 h, 2 days
Procedure: Assay plates were prepared by seeding either BJ-derived cell lines or HT-1080 cells at 1,500 cells per well concentration in 36 μL growth medium. Cells in the assay plates were treated with compounds by transferring 4 μL volume from the compound plate. The final concentration of compound was typically 30 μM to 0.9 nM in this 16-point, 2-fold dilution series. Assay plates were returned to the culture incubator and maintained for 2 days before adding alamar blue. […] Plates were incubated further for 16 hours to allow reduction of alamar blue, which results in the generation of red fluorescence. The fluorescence intensity was determined using a Victor 3 plate reader (Perkin Elmer) with a 535 nm excitation filter and a 590 nm emission filter.
Percent growth inhibition (% GI) was calculated from the following formula using the alamar blue fluorescence intensity values. % GI=100*(1−(X−N)/(P−N)) X, cells treated with lethal compound; N, no cells—growth media only; P, no lethal compound—cells only.
The concentration-dependent curves were generated using Prism software. Percent growth inhibition, measured using alamar blue is shown. Error bars indicate one standard deviation of triplicate data.
The results are shown in FIG. 17 and in Table 7 below.

system xc− = target: T1, system xc− (Homo sapiens, UniProt Q9UPY5); test: Glutamate release assay (system xc− activity); settings: read-out: IC50 glutamate release; CCF-STTG1 human astrocytoma cells, 2 hour incubation
T1 sequence (Q9UPY5 1-501): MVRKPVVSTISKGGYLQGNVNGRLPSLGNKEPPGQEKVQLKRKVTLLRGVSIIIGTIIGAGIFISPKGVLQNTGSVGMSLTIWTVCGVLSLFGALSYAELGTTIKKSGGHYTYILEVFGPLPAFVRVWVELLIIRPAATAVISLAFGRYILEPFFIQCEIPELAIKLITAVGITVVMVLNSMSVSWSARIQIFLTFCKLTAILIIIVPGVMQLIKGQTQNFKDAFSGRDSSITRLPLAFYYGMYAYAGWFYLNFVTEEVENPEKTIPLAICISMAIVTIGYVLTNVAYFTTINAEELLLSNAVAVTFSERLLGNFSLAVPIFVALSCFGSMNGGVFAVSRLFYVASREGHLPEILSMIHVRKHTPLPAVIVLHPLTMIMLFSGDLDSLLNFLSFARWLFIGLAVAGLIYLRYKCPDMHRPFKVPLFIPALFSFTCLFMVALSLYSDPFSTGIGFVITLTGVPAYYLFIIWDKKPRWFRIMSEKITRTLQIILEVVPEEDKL
T1 sequence (P08195 1-529 partner): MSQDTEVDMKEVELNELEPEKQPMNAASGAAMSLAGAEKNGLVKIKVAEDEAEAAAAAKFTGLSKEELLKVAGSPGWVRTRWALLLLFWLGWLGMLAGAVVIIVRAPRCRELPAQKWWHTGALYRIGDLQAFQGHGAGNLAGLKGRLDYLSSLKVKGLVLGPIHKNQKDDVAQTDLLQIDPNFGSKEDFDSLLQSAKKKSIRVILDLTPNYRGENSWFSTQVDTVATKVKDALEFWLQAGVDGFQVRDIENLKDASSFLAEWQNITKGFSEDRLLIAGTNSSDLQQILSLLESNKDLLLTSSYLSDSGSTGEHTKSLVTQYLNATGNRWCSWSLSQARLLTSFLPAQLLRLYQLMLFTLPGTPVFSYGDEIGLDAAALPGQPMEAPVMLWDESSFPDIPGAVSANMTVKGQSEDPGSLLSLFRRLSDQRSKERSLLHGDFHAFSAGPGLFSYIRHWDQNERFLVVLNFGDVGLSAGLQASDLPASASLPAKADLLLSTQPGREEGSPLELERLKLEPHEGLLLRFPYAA

[2] = system: BJeH, BJeHLT, BJeLR, and DRD; test: RSL testing in 4 BJ-derived cell lines; assay type: cell-based, human
[3] = system: siGPX4-induced cell death; test: Suppression of siGPX4-induced cell death by ferroptosis inhibitors; assay type: cell-based; settings: 10 μM U0126, 100 μM Vit. E, 100 μM DFOM, 50 μM ZIL
[4] = system: HT-1080 cells, U-2 OS cells; test: Cell viability (alamar blue, 24 hours) with modulators of erastin lethality; assay type: cell-based, human; settings: HT-1080 or U-2 OS cells
[5] = system: xenograft tumors generated from BJeLR cells; assay type: in vivo; settings: for overt toxicity (body weight): mouse, in vivo
Description: . To test our hypothesis that IKE represented a candidate of choice for in vivo studies, we treated xenograft tumors generated from BJeLR cells in nude mice and with IKE compared to vehicle or doxorubicin treatments (as a positive growth suppression control). […] To confirm that growth suppression caused by IKE was due to ferroptotic cell death, we looked at levels of expression of PTGS2, a gene expression marker of ferroptosis. […]

[6] = Pharmacokinetic profile in mice; parameters: species or system mice (C57BL/6); settings: in vivo
HT-1080 cells = test: Cell death rescue by ALOX inhibitors and COX inhibitor; assay type: cell-based, human; settings: inhibitor concentrations of Table 2
cellular GSH = test: GSH depletion assay; assay type: cell-based; settings: BJeLR cells, lethal RSL3 dose
GFP-ALOX5 = GFP-ALOX5 translocation assay; assay type: cell-based, human
lipid peroxides = test: Lipid peroxide detection using BODIPY-C11; assay type: cell-based; settings: BJeLR and other BJ-derived cells

Compound: CC(C)Oc1ccc(C=O)cc1-n1c(CN2CCN(C(=O)COc3ccc(Cl)cc3)CC2)nc2ccccc2c1=O [AE, aldehyde erastin]
half-life at 0.5 μM [1]: < 5 min
pIC50 (BJeLR): 8.10
pIC50 (HT1080): 7.41
pIC50 (system xc−): 7.22

metabolic stability (in words) [1]: medium to poor metabolic stability
half-life at 0.5 μM [1]: 4.2 min
pIC50 (system xc−): 8.00
Compound: C=CCN1CCN(CC(=O)c2ccc(OC(C)C)c(-n3c(CN4CCN(C(=O)COc5ccc(Cl)cc5)CC4)nc4ccccc4c3=O)c2)CC1 [APKE]
Selectivity (IC50BJeH/IC50BJeLR) (BJeLR): 1.5
pIC50 (BJeLR): 6.71

Compound: CCCCS(=N)(=O)CCC(N)C(=O)O (stereo not shown) [BSO, Buthioninesulfoximine]
RSL phenotype (selective lethality in oncogenic-RAS cells) [2]: RSL phenotype was observed; also recorded: consistently showed an RSL phenotype

Compound: N#CC(=C(/N)Sc1ccccc1N)/C(C#N)=C(\N)Sc1ccccc1N [Compound U0126, U0126]
rescue of siGPX4-induced cell death [3]: rescued

metabolic stability (in words) [1]: medium to poor metabolic stability
half-life at 0.5 μM [1]: 4.7 min
pIC50 (HT1080): 7.21
pIC50 (system xc−): 7.40
Compound: CC(C)Oc1ccc(C(=O)CF)cc1-n1c(CN2CCN(C(=O)COc3ccc(Cl)cc3)CC2)nc2ccccc2c1=O [FKE]

Compound: N[C@@H](CCC(=O)N[C@@H](CS)C(=O)NCC(=O)O)C(=O)O [GSH, reduced glutathione]
effect on erastin-induced cell death [4]: rescued cells from erastin lethality

Compound: CC(C)Oc1ccc(C(=O)Cn2ccnc2)cc1-n1c(CN2CCN(C(=O)COc3ccc(Cl)cc3)CC2)nc2ccccc2c1=O [IKE, imidazole ketone erastin]
metabolic stability (in words) [1]: exceptionally high metabolic stability
Selectivity (IC50BJeH/IC50BJeLR) (BJeLR): 42
pIC50 (BJeLR): 8.52
tumor growth, IKE compared to doxorubicin treatment ([5]; 8 day study): no significant difference
overt toxicity (body weight) [5]: No overt toxicity was observed
expression of PTGS2 relative to doxorubicin or vehicle-treated mice ([5]; qPCR, xenograft): three-fold average increase
tumor size compared to vehicle-treated ([5]; seven once-daily doses of IKE 50 mg/kg I.P., 8 day study): about one third of the size of vehicle-treated tumors
pIC50 (HT1080): 6.50
bioavailability ([6]; mouse, 5 mg/kg IKE, single IV bolus or single oral gavage, C57BL/6 mice): 2.49%
pIC50 (system xc−): 7.52

Compound: COc1ccc2c(c1)c(CC(=O)O)c(C)n2C(=O)c1ccc(Cl)cc1 [Indomethacin]
suppression of erastin-induced cell death (HT-1080 cells): only minimally effective in suppressing erastin lethality

Compound: CC(=O)c1ccc(OC(C)C)c(-n2c(CN3CCN(C(=O)COc4ccc(Cl)cc4)CC3)nc3ccccc3c2=O)c1 [KE]
half-life at 0.5 μM [1]: 3.8 min
pIC50 (HT1080): 7.23
pIC50 (system xc−): 7.52

metabolic stability (in words) [1]: medium to poor metabolic stability
half-life at 0.5 μM [1]: 23.4 min
pIC50 (system xc−): 8.00
Compound: CC(C)Oc1ccc(C(=O)CN2CCOCC2)cc1-n1c(CN2CCN(C(=O)COc3ccc(Cl)cc3)CC2)nc2ccccc2c1=O [MKE]
Selectivity (IC50BJeH/IC50BJeLR) (BJeLR): 5
pIC50 (BJeLR): 6.37

pIC50 (system xc−): 6.52
Compound: CC(C)Oc1ccc(C(=O)CN2CCN(C)CC2)cc1-n1c(CN2CCN(C(=O)COc3ccc(Cl)cc3)CC2)nc2ccccc2c1=O [MPKE]
Selectivity (IC50BJeH/IC50BJeLR) (BJeLR): 1.9
pIC50 (BJeLR): 6.32

Compound: CC(=O)N[C@@H](CS)C(=O)O [N-acetyl-cysteine]
effect on erastin-induced cell death [4]: rescued cells from erastin lethality

metabolic stability (in words) [1]: exceptionally high metabolic stability
half-life at 0.5 μM [1]: > 90 min
pIC50 (HT1080): 6.26
bioavailability ([6]; C57BL/6, mouse, oral, 20 mg/kg): 0.75%
pIC50 (system xc−): 7.00
Compound: CC(C)Oc1ccc(C(=O)CN2CCNCC2)cc1-n1c(CN2CCN(C(=O)COc3ccc(Cl)cc3)CC2)nc2ccccc2c1=O [PKE, piperazine ketone erastin]

metabolic stability (in words) [1]: medium to poor metabolic stability
half-life at 0.5 μM [1]: 3.4 min
pIC50 (system xc−): 8.40
Compound: COc1ccc(CN2CCN(CC(=O)c3ccc(OC(C)C)c(-n4c(CN5CCN(C(=O)COc6ccc(Cl)cc6)CC5)nc5ccccc5c4=O)c3)CC2)cc1 [PMB-PKE]
Selectivity (IC50BJeH/IC50BJeLR) (BJeLR): 13
pIC50 (BJeLR): 7.89

Compound: COC(=O)c1ccc([C@@H]2c3[nH]c4ccccc4c3C[C@@H](C(=O)OC)N2C(=O)CCl)cc1 [RSL3]
cellular GSH level (cellular GSH): remained unaffected
RSL phenotype (selective lethality in oncogenic-RAS cells) [2]: exhibited selective lethality in BJeLR cells
translocation of GFP-ALOX5 to the nuclear membrane (GFP-ALOX5): caused GFP-ALOX5 translocation to the nuclear membrane in BJeLR cells
generation of lipid peroxides (BODIPY-C11) (lipid peroxides): generation of lipid peroxides

pIC50 (HT1080): 6.75
pIC50 (system xc−): 7.70
Compound: CC(C)Oc1ccc(C(=O)C(F)(F)F)cc1-n1c(CN2CCN(C(=O)COc3ccc(Cl)cc3)CC2)nc2ccccc2c1=O [TFKE]

Compound: CC(c1cc2ccccc2s1)N(O)C(N)=O (stereo not shown) [ZIL, Zileuton]
rescue of siGPX4-induced cell death [3]: rescued

Compound: C[C@H]1O[C@@H](O[C@H]2[C@@H](O)C[C@H](O[C@H]3[C@@H](O)C[C@H](O[C@H]4CC[C@@]5(C)[C@H](CC[C@@H]6[C@@H]5C[C@@H](O)[C@]5(C)[C@@H](C7=CC(=O)OC7)CC[C@]65O)C4)O[C@@H]3C)O[C@@H]2C)C[C@H](O)[C@@H]1O [digoxin, Digoxin]
translocation of GFP-ALOX5 to the nuclear membrane (GFP-ALOX5): induced GFP-ALOX5 translocation

Compound: COc1cccc2c1C(=O)c1c(O)c3c(c(O)c1C2=O)C[C@@](O)(C(=O)CO)C[C@@H]3O[C@H]1C[C@H](N)[C@H](O)[C@H](C)O1 [doxorubicin, reference compound]
overt toxicity (body weight) [5]: No overt toxicity was observed
increase in expression of CDKN1A relative to IKE-treated or vehicle-treated mice ([5]; qPCR, xenograft): 5 fold

Compound: C[C@H](CCC(=O)O)C[C@H](C)C[C@H](C)C(=O)/C=C(\O)[C@H](C)C[C@H](C)C/C=C/[C@@H](C)[C@@H](O)[C@@H](C)[C@@H](O)C[C@@H]1CC[C@@](C)([C@H]2CC[C@@](C)([C@@H](C)O)O2)O1 [ionomycin]
translocation of GFP-ALOX5 to the nuclear membrane (GFP-ALOX5): induced localization of GFP-ALOX5 to the nuclear membrane in all BJ-derived cell lines

Compound: CN[C@@H]1C[C@H]2O[C@@](C)([C@@H]1OC)n1c3ccccc3c3c4c(c5c6ccccc6n2c5c31)C(=O)NC4 [staurosporine, Staurosporine]
translocation of GFP-ALOX5 to the nuclear membrane (GFP-ALOX5): did not

Compound: Vitamin E [Vit. E]
rescue of siGPX4-induced cell death [3]: rescued

Compound: lysophosphatidyl choline [lyso-PC]
RSL phenotype (selective lethality in oncogenic-RAS cells) [2]: did not show differential cytotoxicity
effect on erastin-induced cell death [4]: modestly sensitized cells to erastin-induced cell death

Source: patent US9938245B2 (THE TRUSTEES OF COLUMBIA UNIVERSITY IN THE CITY OF NEW YORK, priority 2014, dated 2018)
